Among the data in PubChem BioAssay AID1259411 (Chemical Carcinogenesis Research Information System (CCRIS), 2018) are carcinogen call values, retold here.

The data set deals with rodent carcinogenicity bioassays, tumor incidence. The experiment in a line: CCRIS carcinogenicity studies. The method, boiled down: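 Archive of carcinogenicity, mutagenicity, tumor promotion and tumor inhibition results drawn from journals, NCI reports and other sources, expert-reviewed; covers 1985-2011 and is no longer updated.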

Calls of active or inactive are those of the source. The rule behind the calls is not given here.

For the molecule `CN(C)NC(=O)CCC(=O)O`, the carcinogen call (Species: MOUSE, Strain/Sex: B6C3F1/FEMALE, Route: ORAL, Dose: 0, 5000, 10000 PPM IN DIET FOR 104 WK (STUDY DURATION: 105 WK), Dose: 0, 5000, 10000 PPM IN DIET FOR 104 WK (STUDY DURATION: 105 WK)) is “inactive; negative”; the carcinogen call (Species: MOUSE, Strain/Sex: B6C3F1/MALE, Route: ORAL, Dose: 0, 5000, 10000 PPM IN DIET FOR 104 WK (STUDY DURATION: 105 WK), Dose: 0, 5000, 10000 PPM IN DIET FOR 104 WK (STUDY DURATION: 105 WK), Tumor Site: Type of Lesion: LIVER: HEPATOCELLULAR CARCINOMA) is given as “equivocal”; the carcinogen call (Species: Mouse, Strain/Sex: CD-1/Female (50/group), Route: Oral, Dose: 0, 300, 3,000, 6,000, 10,000 ppm in diet for 2 yr, Dose: 0, 300, 3,000, 6,000, 10,000 ppm in diet for 2 yr, Tumor Site: Type of Lesion: Uterus: at 10,000 ppm) is “equivocal”; the carcinogen call (Species: Mouse, Strain/Sex: CD-1/Male (50/group), Route: Oral, Dose: 0, 300, 3,000, 6,000, 10,000 ppm in diet for 2 yr, Dose: 0, 300, 3,000, 6,000, 10,000 ppm in diet for 2 yr, Tumor Site: Type of Lesion: Vascular tumor: hemangioma and hemangiosarcoma in liver at 10,000 ppm) is given as “equivocal”; the carcinogen call (Species: Mouse, Strain/Sex: Swiss/Male and Female (100/group in controls; 50/group in treated group), Route: Oral, Dose: 0, 2% in drinking water (3000 mg/kg/day), 0.003% UDMH (40 ppm impurity) for 2 yr, Dose: 0, 2% in drinking water (3000 mg/kg/day), 0.003% UDMH (40 ppm impurity) for 2 yr, Tumor Site: Type of Lesion: Lung: adenomas and adenocarcinomas Vascular tumor: hemangioma and hemangiosarcoma predominantly in liver) is given as “equivocal, incidence of lung tumors may be from udmh”; the carcinogen call (Species: RAT, Strain/Sex: F344/FEMALE, Route: ORAL, Dose: 0, 5000, 10000 PPM IN DIET FOR 104 WK (STUDY DURATION: 105 WK), Dose: 0, 5000, 10000 PPM IN DIET FOR 104 WK (STUDY DURATION: 105 WK), Tumor Site: Type of Lesion: ENDOMETRIUM: ADENOCARCINOMA, UTERUS: LEIOMYOSARCOMA) was “active; positive”. The carcinogen call (Species: RAT, Strain/Sex: F344/MALE, Route: ORAL, Dose: 0, 5000, 10000 PPM IN DIET FOR 104 WK (STUDY DURATION: 105 WK), Dose: 0, 5000, 10000 PPM IN DIET FOR 104 WK (STUDY DURATION: 105 WK)) is “inactive; negative”; the carcinogen call (Species: Rat, Strain/Sex: Fischer 344/Female (50/group), Route: Oral, Dose: 0, 1, 50, 100 ppm in diet for 2 yr, Dose: 0, 1, 50, 100 ppm in diet for 2 yr, Tumor Site: Type of Lesion: Liver: increase at 50 and 100 ppm (incidence not reported by CADPR) Uterus: Adenocarcinoma (0, 0, 0, 2)) is on record as “equivocal, ca dpr described results as providing marginal evidence of treatment”; the carcinogen call (Species: Rat, Strain/Sex: Fischer 344/Female (50/group), Route: Oral, Dose: 0, 100, 500, 5,000, 10,000 ppm in diet for 2 yr, Dose: 0, 100, 500, 5,000, 10,000 ppm in diet for 2 yr, Tumor Site: Type of Lesion: Uterus: Adenocarcinoma (0, 1, 2, 1, 1), Leiomyocarcinoma (0, 0, 0, 2, 1)) was “equivocal, ca dpr noted rarity of the tumors but that mtd not achieved”; the carcinogen call (Species: Rat, Strain/Sex: Fischer 344/Male (50/group), Route: Oral, Dose: 0, 100, 500, 5,000, 10,000 ppm in diet for 2 yr, Dose: 0, 100, 500, 5,000, 10,000 ppm in diet for 2 yr) is “inactive; negative”.
As for `COc1ccc2c3c(cccc13)OC([N+](=O)[O-])=C2`, the carcinogen call (Species: RAT, Strain/Sex: WISTAR/MALE, Route: SUBCUTANEOUS, Dose: 0, 0.5 MG IN DMSO 1/WK FOR DURATION OF STUDY (TOTAL DOSE: 0; 10.23 MG) (STUDY DURATION: 156 D), Dose: 0, 0.5 MG IN DMSO 1/WK FOR DURATION OF STUDY (TOTAL DOSE: 0; 10.23 MG) (STUDY DURATION: 156 D), Tumor Site: Type of Lesion: INJECTION SITE: FIBROSARCOMA) is “active; positive”.
As to `[Ni]#[Sb]`, the carcinogen call (Species: RAT, Strain/Sex: F344/MALE, Route: INTRAMUSCULAR, Tumor Site: Type of Lesion: INJECTION SITE: SARCOMA) was “active; positive”.
On to `O=CCCCC=O`, for which the carcinogen call reads like this: (Species: MOUSE, Strain/Sex: B6C3F1/FEMALE, Route: INHALATION, Dose: 0, 62.5, 125, 250 PPM 6 HR/D 5 D/WK FOR 104 WK (STUDY DURATION: 104 WK), Dose: 0, 62.5, 125, 250 PPM 6 HR/D 5 D/WK FOR 104 WK (STUDY DURATION: 104 WK)) “inactive; negative”; (Species: MOUSE, Strain/Sex: B6C3F1/FEMALE, Route: INHALATION, Dose: 0, 100 PPB 6 HR/D 5 D/WK FOR 52 OR 78 WK (STUDY DURATION: 78 WK)) “inactive; negative”; (Species: MOUSE, Strain/Sex: B6C3F1/MALE, Route: INHALATION, Dose: 0, 62.5, 125, 250 PPM 6 HR/D 5 D/WK FOR 104 WK (STUDY DURATION: 104 WK), Dose: 0, 62.5, 125, 250 PPM 6 HR/D 5 D/WK FOR 104 WK (STUDY DURATION: 104 WK)) “inactive; negative”; (Species: MOUSE, Strain/Sex: B6C3F1/MALE, Route: INHALATION, Dose: 0, 100 PPB 6 HR/D 5 D/WK FOR 52 OR 78 WK (STUDY DURATION: 78 WK)) “inactive; negative”; (Species: RAT, Strain/Sex: F344/FEMALE, Route: ORAL, Dose: 0, 50, 250, 1000 PPM IN DRINKING WATER FOR 104 WK (STUDY DURATION: 104 WK), Dose: 0, 50, 250, 1000 PPM IN DRINKING WATER FOR 104 WK (STUDY DURATION: 104 WK)) “inactive; negative”; (Species: RAT, Strain/Sex: F344/MALE, Route: ORAL, Dose: 0, 50, 250, 1000 PPM IN DRINKING WATER FOR 104 WK (STUDY DURATION: 104 WK), Dose: 0, 50, 250, 1000 PPM IN DRINKING WATER FOR 104 WK (STUDY DURATION: 104 WK)) “inactive; negative”. Moreover, the carcinogen call is “inactive; negative” (Species: RAT, Strain/Sex: F344/N/FEMALE, Route: INHALATION, Dose: 0, 250, 500, 750 PPM 6 HR/D 5 D/WK FOR 104 WK (STUDY DURATION: 104 WK), Dose: 0, 250, 500, 750 PPM 6 HR/D 5 D/WK FOR 104 WK (STUDY DURATION: 104 WK)); “inactive; negative” (Species: RAT, Strain/Sex: F344/N/MALE, Route: INHALATION, Dose: 0, 250, 500, 750 PPM 6 HR/D 5 D/WK FOR 104 WK (STUDY DURATION: 104 WK), Dose: 0, 250, 500, 750 PPM 6 HR/D 5 D/WK FOR 104 WK (STUDY DURATION: 104 WK)); “active; positive” (Species: Rat, Strain/Sex: Fischer 344/Female (80/Group), Route: Oral, Dose: 0, 50, 250, 1000 ppm (0; 5.5; 25.1; 85.9 mg/kg/d) in drinking water for 104 wk, study duration 104 wk, Dose: 0, 50, 250, 1000 ppm (0; 5.5; 25.1; 85.9 mg/kg/d) in drinking water for 104 wk, study duration 104 wk, Tumor Site: Type of Lesion: Large granular lymphocyte leukemia (24, 41, 41, 53/100 animals)); “inactive; negative” (Species: Rat, Strain/Sex: Fischer 344/Male (80/Group), Route: Oral, Dose: 0, 50, 250, 1000 ppm (0; 3.6; 17.1; 63.9 mg/kg/d) in drinking water for 104 wk, study duration 104 wk, Dose: 0, 50, 250, 1000 ppm (0; 3.6; 17.1; 63.9 mg/kg/d) in drinking water for 104 wk, study duration 104 wk).
Take `NC(=O)c1cnccn1`: the carcinogen call runs as follows: (Species: MOUSE, Strain/Sex: B6C3F1/MALE, Route: ORAL, Dose: 0, 5000, 10000 PPM IN DIET, Dose: 0, 5000, 10000 PPM IN DIET) “inactive; negative”; (Species: RAT, Strain/Sex: F344/FEMALE, Route: ORAL, Dose: 0, 5000, 10000 PPM IN DIET, Dose: 0, 5000, 10000 PPM IN DIET) “inactive; negative”; (Species: RAT, Strain/Sex: F344/MALE, Route: ORAL, Dose: 0, 5000, 10000 PPM IN DIET, Dose: 0, 5000, 10000 PPM IN DIET) “inactive; negative”.
As to `Clc1ccccc1`, the carcinogen call is “inactive; negative” (Species: MOUSE, Strain/Sex: B6C3F1/FEMALE, Route: GAVAGE, Dose: 0, 60, 120 MG/KG IN CORN OIL 5 D/WK FOR 103 WK (STUDY DURATION: 105 WK), Dose: 0, 60, 120 MG/KG IN CORN OIL 5 D/WK FOR 103 WK (STUDY DURATION: 105 WK)); “inactive; negative” (Species: MOUSE, Strain/Sex: B6C3F1/MALE, Route: GAVAGE, Dose: 0, 30, 60 MG/KG IN CORN OIL 5 D/WK FOR 103 WK (STUDY DURATION: 105 WK), Dose: 0, 30, 60 MG/KG IN CORN OIL 5 D/WK FOR 103 WK (STUDY DURATION: 105 WK)); “inactive; negative” (Species: RAT, Strain/Sex: F344/FEMALE, Route: GAVAGE, Dose: 0, 60, 120 MG/KG IN CORN OIL 5 D/WK FOR 103 WK (STUDY DURATION: 105 WK), Dose: 0, 60, 120 MG/KG IN CORN OIL 5 D/WK FOR 103 WK (STUDY DURATION: 105 WK)); “equivocal” (Species: RAT, Strain/Sex: F344/MALE, Route: GAVAGE, Dose: 0, 60, 120 MG/KG IN CORN OIL 5 D/WK FOR 103 WK (STUDY DURATION: 105 WK), Dose: 0, 60, 120 MG/KG IN CORN OIL 5 D/WK FOR 103 WK (STUDY DURATION: 105 WK), Tumor Site: Type of Lesion: LIVER: NEOPLASTIC NODULE, NEOPLASTIC NODULE OR CARCINOMA).
Consider `c1cc2ccc3ccc4ccc5cccc6c(c1)c2c3c4c56`, for which, where the note is “Species: RAT, Strain/Sex: OSBORNE-MENDEL/FEMALE, Route: LUNG IMPLANT, Dose: 0, 0.16, 0.83, 4.15 MG IN BEESWAX/TRIOCTANOIN (STUDY DURATION: LIFETIME), Dose: 0, 0.16, 0.83, 4.15 MG IN BEESWAX/TRIOCTANOIN (STUDY DURATION: LIFETIME)”, the carcinogen call is “inactive; negative”.
